In the first assay the target is human HPK1 (MAP4K1) (Homo sapiens (Human), UniProt Q92918). As to the kind of experiment: HPK1 IC50 Assay (TR-FRET biochemical kinase assay, STK S1 peptide substrate). The settings on record: recombinant human HPK1 kinase domain 0.15 nM, 10 μM ATP, 1 μM STK S1 peptide; geometric mean. Summed up: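 Pre-activated recombinant kinase domain (insect cells; 0.15 nM) pre-incubated with compounds for 15 min, then 10 μM ATP and 1 μM STK S1 peptide added for 3 h at 25 °C in BES pH 7.0. Phosphorylation read by HTRF (665/620 nm). IC50 from four-parameter fits normalized to staurosporine/DMSO controls, geometric mean of repeats.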
Sequence of human HPK1 (MAP4K1) (Q92918 17-274): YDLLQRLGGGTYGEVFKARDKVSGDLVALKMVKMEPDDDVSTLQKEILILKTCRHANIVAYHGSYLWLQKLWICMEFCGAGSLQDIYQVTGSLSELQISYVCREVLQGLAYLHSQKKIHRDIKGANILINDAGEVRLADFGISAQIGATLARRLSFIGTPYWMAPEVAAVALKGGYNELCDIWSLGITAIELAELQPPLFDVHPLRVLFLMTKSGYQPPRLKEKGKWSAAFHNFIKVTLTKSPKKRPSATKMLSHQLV
For orientation: In TR-FRET formats the signal depends on donor and acceptor labels being close together.
As usually defined, the IC50 is the concentration at which inhibition is half-maximal. In the case of `CC(C)n1cnc2cc(-c3ccc4c(c3)N([C@H]3C[C@@H](N5CCCCC5)C3)C(=O)C43CCN(C4COC4)CC3)nc(Nc3ccncc3F)c21` [Example 174, 6-(4-((3-fluoropyridin-4-yl)amino)-3-isopropyl-3H-imidazo[4,5-c]pyridin-6-yl)-1′-(oxetan-3-yl)-1-((1s,3s)-3-(piperidin-1-yl)cyclobutyl)spiro[indoline-3,4′-piperidin]-2-one], the IC50 stood at 0.5 nM.
As for `CC(C)n1cnc2cc(-c3ccc4c(c3)N([C@H]3C[C@@H](N5CCC(C)(C)C5)C3)C(=O)C43CCN(C(=O)C4(CO)CC4)CC3)nc(Nc3ccncc3F)c21` [Example 135], the IC50 turned out to be 0.4 nM.
On the same count and under the same terms, in the case of `CC(C)n1cnc2cc(-c3ccc4c(c3)N([C@H]3C[C@@H](N5CCC(C)(C)C5)C3)C(=O)C43CCN(C(=O)c4cocn4)CC3)nc(Nc3ccncc3F)c21` [Example 154] it was 0.3 nM; in that of `CC(C)n1cnc2cc(-c3ccc4c(c3)N([C@H]3C[C@@H](N5CCC(C)(C)C5)C3)C(=O)C43CCN(C(=O)[C@@H](C)O)CC3)nc(Nc3ccncc3F)c21` [Example 120], 0.5 nM; in that of `CC(C)n1cnc2cc(-c3ccc4c(c3)N([C@H]3C[C@@H](N5CCCCC5)C3)C(=O)C43CCN(C(=O)C4COC4)CC3)nc(Nc3ccncc3F)c21` [Example 144], 0.3 nM.
On the same count and under the same terms, next, `CO[C@@H](C)C(=O)N1CCC2(CC1)C(=O)N([C@H]1C[C@@H](N3CCCCC3)C1)c1cc(-c3cc4ncn(C(C)C)c4c(Nc4ccncc4F)n3)ccc12` [Example 152]: 0.5 nM; `CC(C)n1cnc2cc(-c3ccc4c(c3)N([C@H]3C[C@@H](N5CC[C@@H](C)C5)C3)C(=O)C4(C)C)nc(Nc3ccncc3F)c21` [Example 192]: 1.1 nM; `CC(C)n1cnc2cc(-c3ccc4c(c3)N([C@H]3C[C@@H](N5CCC(C)(C)C5)C3)C(=O)C43CCN(C(=O)C4(C)COC4)CC3)nc(Nc3cc(Cl)ncc3F)c21` [Example 130]: 1 nM.
As for `CC(=O)N1CCC2(CC1)C(=O)N([C@H]1C[C@@H](N3CCC4CC4C3)C1)c1cc(-c3cc4ncn(C(C)C)c4c(Nc4ccncc4F)n3)ccc12` (stereo partly shown) [Example 183], the concentration for half-maximal inhibition (IC50) was 0.4 nM.
Take `CCn1cnc2cc(-c3ccc4c(c3)N([C@H]3C[C@@H](N5CCCCC5)C3)C(=O)C43CCN(C(=O)C45CC(F)(C4)C5)CC3)nc(Nc3ccncc3F)c21` [Example 151]: the IC50 came to 0.3 nM.
For the compound `CC(=O)N1CCC2(CC1)C(=O)N([C@H]1C[C@@H](N3CC4CC4(C)C3)C1)c1cc(-c3cc4ncn(C(C)C)c4c(Nc4ccncc4F)n3)ccc12` (stereo partly shown) [Example 187], the IC50 was found to be 0.2 nM.
The same measure, in the same setting: next, `CC(C)n1cnc2cc(-c3ccc4c(c3)N([C@H]3C[C@@H](N5C[C@H]6CC[C@H]6C5)C3)C(=O)C43CCN(C(=O)[C@@H](C)O)CC3)nc(Nc3ccncc3F)c21` [Example 113]: 0.07 nM.
The same measure, in the same setting: in the case of `CC(=O)N1CCC2(CC1)C(=O)N([C@H]1C[C@@H](N3CC4CCC(C4)C3)C1)c1cc(-c3cc4ncn(C(C)C)c4c(Nc4cc(C)ncc4F)n3)ccc12` [Example 166] it was 0.1 nM.
As to `CC(C)n1cnc2cc(-c3ccc4c(c3)N([C@H]3C[C@@H](N5CCCC5)C3)C(=O)C4(C)C)nc(Nc3ccncc3F)c21` [Example 188], the IC50 was found to be 3.2 nM.
Same read-out and setting: next, `CC[C@@H](O)C(=O)N1CCC2(CC1)C(=O)N([C@H]1C[C@@H](N3CCC(C)(C)C3)C1)c1cc(-c3cc4ncn(C(C)C)c4c(Nc4ccncc4F)n3)ccc12` [Example 117]: 0.2 nM; `CC(C)n1cnc2cc(-c3ccc4c(c3)N([C@H]3C[C@@H](N5CCCCC5)C3)C(=O)C43CCN(C(=O)C(C)(C)C#N)CC3)nc(Nc3ccncc3F)c21` [Example 141]: 0.3 nM.
Still for that read-out and setting: in the case of `CC(C)n1cnc2cc(-c3ccc4c(c3)N([C@H]3C[C@@H](N5CCCCC5)C3)C(=O)C43CCN(C(=O)C(C)(C)CF)CC3)nc(Nc3ccncc3F)c21` [Example 139] it was 0.5 nM.
Still for that read-out and setting: next, `CC(C)n1cnc2cc(-c3ccc4c(c3)N([C@H]3C[C@@H](N5CCCCC5)C3)C(=O)C43CCN(C(=O)C(C)(C)C)CC3)nc(Nc3ccncc3F)c21` [Example 170]: 0.3 nM; `CC(C)C(=O)N1CCC2(CC1)C(=O)N([C@H]1C[C@@H](N3CCCCC3)C1)c1cc(-c3cc4ncn(C(C)C)c4c(Nc4ccncc4F)n3)ccc12` [Example 171]: 0.5 nM; `CCn1cnc2cc(-c3ccc4c(c3)N([C@H]3C[C@@H](N5CCCCC5)C3)C(=O)C43CCN(C(=O)C(C)C)CC3)nc(Nc3ccncc3F)c21` [Example 148]: 1.3 nM.

Staying with this assay, now noted: recombinant human HPK1 kinase domain 0.15 nM, 10 μM ATP, 1 μM STK S1 peptide; geometric mean of multiple experiments.
On to `CC(=O)N1CCC2(CC1)C(=O)N([C@H]1C[C@@H](N3CCCCC3)C1)c1cc(-c3cc4ncn(C(C)C)c4c(Nc4cc(C(=O)NC(C)C)ncc4F)n3)ccc12` [Example 74], for which the IC50 was 6.6 nM.
As to `CC(C)n1cnc2cc(-c3ccc4c(c3)N([C@H]3C[C@@H](N5CCC(C)(C)C5)C3)C(=O)C43CCN(C(=O)[C@@H]4CCCO4)CC3)nc(Nc3ccncc3F)c21` [Example 13], the concentration for half-maximal inhibition (IC50) stood at 0.2 nM.
Regarding `CC(C)n1cnc2cc(-c3ccc4c(c3)N([C@H]3C[C@@H](N5CCC(C)(C)C5)C3)C(=O)C43CCN(C(=O)[C@H]4CCCO4)CC3)nc(Nc3ccncc3F)c21` [Example 14], the IC50 was found to be 0.2 nM.
The same measure, in the same setting: in the case of `CC(C)n1cnc2cc(-c3ccc4c(c3)N([C@H]3C[C@@H](N5CCCCC5)C3)C(=O)C43CCN(C(=O)C4(C)CCOCC4)CC3)nc(Nc3ccncc3F)c21` [Example 1, 6-(4-((3-fluoropyridin-4-yl)amino)-3-isopropyl-3H-imidazo[4,5-c]pyridin-6-yl)-1′-(4-methyltetrahydro-2H-pyran-4-carbonyl)-1-((1s,3s)-3-(piperidin-1-yl)cyclobutyl)spiro[indoline-3,4′-piperidin]-2-one] it was 0.6 nM; in that of `CC(C)n1cnc2cc(-c3ccc4c(c3)N([C@H]3C[C@@H](N5CCC(C)(C)C5)C3)C(=O)C43CCN(C(=O)C4(C)CCO4)CC3)nc(Nc3ccncc3F)c21` (stereo partly shown) [Example 12], 0.1 nM; in that of `CC(C)n1cnc2cc(-c3ccc4c(c3)N([C@H]3C[C@@H](N5CCC(C)(C)C5)C3)C(=O)C43CCN(C4COC4)CC3)nc(Nc3ccncc3F)c21` [Example 75], 0.4 nM.
The same measure, in the same setting: next, `CCn1cnc2cc(-c3ccc4c(c3)N([C@H]3C[C@@H](N5CCC(C)(C)C5)C3)C(=O)C43CCN(C4COC4)CC3)nc(Nc3ccncc3F)c21` [Example 87]: 0.7 nM.
Still for that read-out and setting: next, `CC(C)n1cnc2cc(-c3ccc4c(c3)N([C@H]3C[C@@H](N5CCCCC5)C3)C(=O)C43CCN(C(=O)[C@@H](C)O)CC3)nc(Nc3ccncc3F)c21` [Example 2]: 0.5 nM.
Take `CC(C)n1cnc2cc(-c3ccc4c(c3)N([C@H]3C[C@@H](N5CCC(C)(C)C5)C3)C(=O)C43CCN(C(=O)[C@H]4OCC[C@H]4C)CC3)nc(Nc3ccncc3F)c21` [Example 19B, 1-((1s,3R)-3-(3,3-dimethylpyrrolidin-1-yl)cyclobutyl)-6-(4-((3-fluoropyridin-4-yl)amino)-3-isopropyl-3H-imidazo[4,5-c]pyridin-6-yl)-1′-((2S,3R)-3-methyltetrahydrofuran-2-carbonyl)spiro[indoline-3,4′-piperidin]-2-one]: the IC50 turned out to be 0.1 nM.
On the same count and under the same terms, next, `CC(C)n1cnc2cc(-c3ccc4c(c3)N([C@H]3C[C@@H](N5CCC6(CC6)C5)C3)C(=O)C43CCN(C(=O)C4(C)COC4)CC3)nc(Nc3ccncc3F)c21` [Example 5]: 0.5 nM; `CC(C)n1cnc2cc(-c3ccc4c(c3)N([C@H]3C[C@@H](N5CC6CCC(C6)C5)C3)C(=O)C4(C)C)nc(Nc3ccncc3F)c21` [Example 62]: 0.05 nM; `CC(C)n1cnc2cc(-c3ccc4c(c3)N([C@H]3C[C@@H](N5CCCCC5)C3)C(=O)C43CCN(C(=O)[C@@H](C)O)CC3)nc(Nc3ccc(F)nc3F)c21` [Example 68]: 0.1 nM.
On the same count and under the same terms, next, `CC(C)n1cnc2cc(-c3ccc4c(c3)N([C@H]3C[C@@H](N5CCC(C)(C)C5)C3)C(=O)C43CCN(C(=O)[C@@H]4OCC[C@@H]4C)CC3)nc(Nc3ccncc3F)c21` [Example 19A, 1-((1s,3S)-3-(3,3-dimethylpyrrolidin-1-yl)cyclobutyl)-6-(4-((3-fluoropyridin-4-yl)amino)-3-isopropyl-3H-imidazo[4,5-c]pyridin-6-yl)-1′-((2R,3S)-3-methyltetrahydrofuran-2-carbonyl)spiro[indoline-3,4′-piperidin]-2-one]: 0.2 nM.
The same measure, in the same setting: in the case of `CC(=O)N1CCC2(CC1)C(=O)N([C@H]1C[C@@H](N3C[C@@H](C)[C@@H](C)C3)C1)c1cc(-c3cc4ncn(C(C)C)c4c(Nc4ccncc4F)n3)ccc12` [Example 33] it was 0.3 nM; in that of `CC(C)n1cnc2cc(-c3ccc4c(c3)N([C@H]3C[C@@H](N5CCCC(C)(C)C5)C3)C(=O)C43CCN(C4COC4)CC3)nc(Nc3ccncc3F)c21` [Example 45], 0.2 nM.
In the case of `CC(C)n1cnc2cc(-c3ccc4c(c3)N([C@H]3C[C@@H](N5CCC[C@@H](C)C5)C3)C(=O)C43CCN(C4COC4)CC3)nc(Nc3ccncc3F)c21` [Example 41], the IC50 came out at 0.6 nM.
As for `CC(C)n1cnc2cc(-c3ccc4c(c3)N([C@H]3C[C@@H](N5CCC(C(F)F)C5)C3)C(=O)C43CCN(C4COC4)CC3)nc(Nc3ccncc3F)c21` (stereo partly shown) [Example 48], the half-inhibitory concentration (IC50) came to 1.5 nM.
As for `CC(C)n1cnc2cc(-c3ccc4c(c3)N([C@H]3C[C@@H](N5CCC[C@@H](F)C5)C3)C(=O)C43CCN(C4COC4)CC3)nc(Nc3ccncc3F)c21` [Example 79], the IC50 is 0.4 nM.
On the same count and under the same terms, in the case of `CC(C)n1cnc2cc(-c3ccc4c(c3)N([C@H]3C[C@@H](N5CCC(C)(C)C5)C3)C(=O)C43CCN(C(=O)[C@@H]4CCOC4)CC3)nc(Nc3ccncc3F)c21` [Example 17] it was 0.3 nM.
`CC(C)n1cnc2cc(-c3ccc4c(c3)N([C@H]3C[C@@H](N5CC(C)(C)C[C@H]5CO)C3)C(=O)C43CCN(C4COC4)CC3)nc(Nc3ccncc3F)c21` [Example 38]: the concentration for half-maximal inhibition (IC50) stood at 1.4 nM.
